Key:
[1] = cited from earlier work
[2] = test system: Sprague Dawley Crl:CD(SD) rats; experiment: Repeated daily oral gavage study in rats: hematology, serum iron, gross necropsy; assay type: in vivo; settings: once per day oral gavage
Protocol: The test material solution or vehicle control was administered once per day by oral gavage administration, and individual dose volumes were calculated based on the most recent body weight data for each animal.
General health/mortality and moribundity checks were performed twice daily, and detailed clinical observations were performed on days 1, 8, and 15 prior to dosing. Hematology parameters were evaluated for all animals on days 1, 7, and 14. Blood collection for serum iron concentration evaluation was performed on these days as well, and blood samples were obtained via the orbital plexus while the animals were under light isoflurane anesthesia. All animals were subjected to complete gross necropsy examination at scheduled euthanasia.
Blood samples for hematology testing were collected in volumes of about 200 μL in tubes containing anticoagulant K2EDTA, and were evaluated for red blood cell count (RBC), hemoglobin concentration (Hb), hematocrit (Hct), mean corpuscular volume (MCV), mean corpuscular hemoglobin concentration (MCHC), mean corpuscular hemoglobin (MCH), reticulocyte count (Retic), red blood cell morphology, white blood cell count (WBC), neutrophil count (Neut), lymphocyte count (Lymph), monocyte count (Mono), eosinophil count (Eos), and basophil count (Baso). Serum iron was measured by taking about 1 mL blood samples in a serum separator tube.

[3] = total administration should not exceed; cited from earlier work
[4] = versus ferrous sulfate and/or ferrous fumarate, Newton et al. 1980, Piccinni et al. 1982

Compound	efficacy at increasing hemoglobin and hematocrit values [1, 4]	tolerability [1, 4]	gastrointestinal side effects ([1]; versus ferrous sulfate, Johnson et al., Niferex-150 in ESRD patients receiving EPOGEN)	immune response (segmented neutrophils, platelets, lymphocytes) ([2]; Group 2 500 mg Fe/kg, Group 3 250 + 250 mg Fe/kg, hematology days 1, 7, 14)	gross internal findings at necropsy ([2]; Group 2 500 mg Fe/kg, Group 3 250 + 250 mg Fe/kg, scheduled euthanasia)	serum iron levels ([2]; ferrous fumarate 500 mg Fe/kg (Group 2), ferrous fumarate 250 + PIC 250 mg Fe/kg (Group 3), blood on days 1, 7, 14)	toxicity limits [3] [mg/kg]
polysaccharide iron complex [PIC]	equivalent efficacy	better tolerated	fewer gastrointestinal side effects	–	–	–	–
O=C([O-])/C=C/C(=O)[O-].[Fe+2] [ferrous fumarate]	–	–	–	about the same	body fat depletion, thyroid nodules, reddened mandibular lymph nodes, reddened stomach mucosa, small thymus, foci on the thymus, and dark fecal matter	significant increases	200 to 250

Reference: patent publication US20110052722A1, “Toleration Iron Supplement Compositions” (priority 2005, published 2011)
